{
  "source": "patent US11299467B2",
  "about": "(Antabio SAS, priority 2017, dated 2022)",
  "type_in_all_cases": "cell-based",
  "key": {"[1]": {"tested_on": "NTBC062 (K. pneumoniae strain expressing IMP-1 and TEM-1)", "experiment": "Meropenem MIC, broth micro-dilution, NTBC062", "conditions": "Klebsiella pneumoniae, read-out: MIC mero", "description": "(§1) The experiments were carried out using the ‘broth micro-dilution method’ according to the protocols M07-A8 established by the Clinical Laboratory Standards Institute (CLSI). Serial dilutions of the β-lactam antibiotic (Meropenem) were prepared in 96-well plates in cation-adjusted Mueller-Hinton broth (CAMHB); the concentration range was defined from 0.03 mg/L to 512 mg/L. The compounds were added at a constant concentration of 8 μg/mL. A bacterial inoculum of each strain (clinical isolates) was adjusted to a 0.5 McFarland turbidity standard in physiologic serum (0.9% NaCl), then diluted 1:100 in CAMHB and added to each well to give a final bacterial cell number of 5×10^5 CFU/well. After incubation for 18-20 hours in a heating chamber at 37° C., the growth inhibition was evaluated by the absence of any bacterial development.\n(§2) Compounds of the invention were tested at a constant concentration of 8 μg/mL. […]\n(§3) Experiments were carried out using the ‘broth micro-dilution method’ according to the protocols M07-A8 established by the Clinical Laboratory Standards Institute (CLSI). […] After incubation for 18-20 hours in a heating chamber at 37° C., the growth inhibition was evaluated by the absence of any bacterial development. […]"}, "[2]": {"tested_on": "NTBC187 (K. pneumonia strain expressing SHV-OSBL, NDM-1 and OXA-48)", "experiment": "Meropenem MIC, broth micro-dilution, NTBC187", "conditions": "Klebsiella pneumoniae, read-out: MIC mero", "description": "as §1, with “Experiments” for “The experiments”, “meropenem (mero)” for “the β-lactam antibiotic (Meropenem)”, “compounds (the compound of Example 2, above, and/or WCK4234)” for “compounds”, “the” for “a constant”, “indicated in the table below.” for “of 8 μg/mL.”\n(§4) NTBC019 (K. pneumonia strain expressing NDM-1, CTX-M-15 and OXA-181); NTBC185 (K. pneumonia strain expressing SHV-OSBL, TEM-OSBL, NDM-1 and OXA-48); NTBC186 (K. pneumonia strain expressing ACT-TYPE, VIM-1 and OXA-48); NTBC187 (K. pneumonia strain expressing SHV-OSBL, NDM-1 and OXA-48); and NTBC188 (K. pneumonia strain expressing NDM-1 and KPC-2)."}, "[3]": {"tested_on": "NTBC042 (E. coli strain expressing VIM-1, TEM-1, CTX-M-15, SHV-12)", "experiment": "Meropenem MIC, broth micro-dilution, NTBC042", "conditions": "Escherichia coli, read-out: MIC mero", "description": "as §1, §2, §3"}, "[4]": {"tested_on": "panel of clinical Enterobacteriacae strains expressing NDM enzymes (196 isolates)", "experiment": "Extended MIC profiling vs MBL-expressing clinical strains (meropenem potentiation)", "conditions": "196 NDM-expressing clinical isolates", "description": "By contrast, the same concentration of meropenem alone is only capable of stopping the growth of <1% of the strains and within the parameters of the experiment the cessation of growth of 90% of all strains could not be achieved with meropenem alone.\nTo assess the coverage and potentiation of meropenem by compounds of the invention, the susceptibility of around 200 clinical isolates was examined. The criteria for selection into the panel was that the clinical strain was resistant to carbapenems, but only expressing NDM enzyme variants and not serine betalactamase enzymes with carbapenemase activity such as KPC or OXA."}, "[5]": {"tested_on": "NTBC035-2 (K. pneumoniae strain expressing NDM-1, CMY-4 and SHV-11)", "experiment": "Meropenem MIC, broth micro-dilution, NTBC035-2", "conditions": "Klebsiella pneumoniae, read-out: MIC mero", "description": "as §1, §2, §3"}, "[6]": {"tested_on": "NTBC091-1 (E. coli strain expressing KPC-2 and TEM-1)", "experiment": "Meropenem MIC, broth micro-dilution, NTBC091-1", "conditions": "Escherichia coli, read-out: MIC mero", "description": "as §1, with “Experiments” for “The experiments”, “meropenem (mero)” for “the β-lactam antibiotic (Meropenem)”, “compounds (the compound of Example 2, above, and/or WCK4234)” for “compounds”, “the” for “a constant”, “indicated in the table below.” for “of 8 μg/mL.”\nNTBC091-1 (E. coli strain expressing KPC-2 and TEM-1); NTBC093 (E. cloacae strain expressing KPC-2 and TEM-1); NTBC096-1 (K. pneumonia strain expressing OXA-181 and SHV-11); NTBC099 (K. pneumonia strain expressing KPC-3, SHV-11 and TEM-1); and NTBC189 (K. pneumonia strain expressing TEM-OSBL, CTX-M-14 and OXA-48)."}, "[7]": {"tested_on": "NTBC019 (K. pneumonia strain expressing NDM-1, CTX-M-15 and OXA-181)", "experiment": "Meropenem MIC, broth micro-dilution, NTBC019", "conditions": "Klebsiella pneumoniae", "description": "as §1, with “Experiments” for “The experiments”, “meropenem (mero)” for “the β-lactam antibiotic (Meropenem)”, “compounds (the compound of Example 2, above, and/or WCK4234)” for “compounds”, “the” for “a constant”, “indicated in the table below.” for “of 8 μg/mL.”\nas §4\nExperiments were conducted as described above. Compounds (the compounds of Examples 2 and 26) were tested at 8 μg/mL. […] MIC values were determined for […]"}, "[8]": {"tested_on": "NTBC024 (K. pneumoniae strain expressing VIM-19, TEM-1 and CTX-M-3)", "experiment": "Meropenem MIC, broth micro-dilution, NTBC024", "conditions": "Klebsiella pneumoniae, read-out: MIC mero", "description": "as §1, §2, §3"}},
  "note": "Where two headings read alike, the source gives them in different places.",
  "data": [
    {"smiles": "C[C@@H](O)[C@H]1C(=O)N2C(C(=O)O)=C(S[C@@H]3CN[C@H](C(=O)N(C)C)C3)[C@H](C)[C@H]12", "note": "[Meropenem]", "values": [
      {"measurement": "MIC", "setting": "[1]", "result": 4, "unit": "µg/mL"},
      {"measurement": "MIC", "setting": "[2]", "result": 128, "unit": "µg/mL"},
      {"measurement": "MIC", "setting": "[3]", "result": 8, "unit": "µg/mL"},
      {"measurement": "strains whose growth is stopped by the same concentration (8 ug/mL) of meropenem alone", "setting": "[4]", "result": "< 1", "unit": "%"},
      {"measurement": "MIC", "setting": "[5]", "result": 64, "unit": "µg/mL"},
      {"measurement": "MIC", "setting": "[6]", "result": 4, "unit": "µg/mL"},
      {"measurement": "MIC", "setting": "[7]; read-out: MIC mero", "result": 64, "unit": "µg/mL"},
      {"measurement": "MIC", "setting": "[7]; read-out: MIC, NTBC19", "result": "8 to 512", "unit": "µg/mL"},
      {"measurement": "MIC", "setting": "[8]", "result": 16, "unit": "µg/mL"}
    ]}
  ]
}
